From patent US20030004140A1, “Methods for modulating cell-adhesion mediated drug resistance” (priority 2000, published 2003)
pIC50: −log10 of the molar value. Where two headings read alike, the source gives them in different places. Marks after values point to notes of the source that are not given here.

How the values were obtained:
K562 cells [1] = assay: Annexin V apoptosis analysis, FN adhered vs suspension; type: cell-based
8226/S cells = assay: Adhesion of 8226 cells to fibronectin after bisphosphonate treatment; type: cell-based, human; details: 100 micromolar for 1.5 hours before plating
K562 cells [2] = assay: Adhesion of K562 cells to FN in presence of BCR/ABL inhibitor; type: cell-based; details: at the concentrations of inhibitor used in cytotoxicity assays
Experimental: Cellular adhesion to FN is determined. In some experiments, cells are pre-incubated for 15 minutes with P4G9, P1D6, P4C10, B3B11, or isotype antibody controls prior to application to wells.
The BCR/ABL kinase is believed to be critical to the survival of CML cells through its effects on a number of signal transduction pathways. Inhibitors of this fusion protein show promise as apoptosis-inducing drugs in CML cells. BCR/ABL inhibition by relatively high doses of the tyrphostin AG957 can have negative effects on FN adhesion. At the concentrations of inhibitor used in cytotoxicity assays, the adhesion of K562 cells to FN is not affected by more than 20-40 percent.

K562 cells [3] = assay: MTT cytotoxicity assay, FN adhered vs suspension; type: cell-based
Experimental: Plastic 96-well Immunosorp plates (Nunc, Denmark) are coated with 50 μl (40 μg/ml) FN (Life Technologies) or BSA overnight. Cells are washed once and resuspended in serum-free RPMI 1640, then 2×10^4 (K562) cells are added to each FN coated well. 8×10^3 (K562) cells are added to BSA coated wells. Cells are incubated for 2 hours at 37° C., washed with serum free media, and put back into serum-containing media. Following 24 hours in a tissue culture incubator, drug or vehicle control is added to each well for 90 minutes, media is removed and replaced by drug-free media for 96 hours. In some experiments, the drug is allowed to remain in each well for 96 hours. 50 μl 3-[4,5-Dimethylthiazol-2-yl]-2,5-diphenyltetrazolium bromide; Thiazolyl blue (MTT dye) (Sigma) is added to each well for 4 hours, plates are centrifuged and each well aspirated. Dye is solubilized with 100 μl DMSO and plates are read at 540 nm on an automated microtiter plate reader. A blank well containing only medium and drug is also run as a control in all experiments. IC50 values are calculated by linear regression analysis of percent survival vs. drug concentration.
The MTT assay is used to detect differences in the drug sensitivity of FN adhered vs. suspension-cultured cells following a 90 minutes or 96 hours (continuous) exposure to either mitoxantrone or melphalan (L-phenylalanine mustard or LPAM). After a 96 hour period in a cell incubator, cell survival is determined by the ability of viable cells to reduce MTT dye to formazan. IC50 values are derived through linear regression of the log-linear dose-response plots for each cell line to each drug. Student's T-test is used to analyze differences in drug response using data collected from at least three different experiments. FIGS. 8A and 8B depict representative continuous exposure experiments using mitoxantrone and LPAM, respectively.

[4] = system: BCR/ABL-associated tyrosine kinase activity; assay: Anti-phosphotyrosine Western blotting; details: K562 cells, 20 μM, 4 hour treatment
8226/S myeloma cells [5] = assay: MTT cytotoxicity assay, FN-adhered vs BSA/non-adhered cells; type: cell-based, human; details: for pIC50: Homo sapiens; for mean difference FN-adhered vs BSA: n=3, 1 hour drug exposure
8226/S = type: cell-based, human
8226/S myeloma cells [6] = assay: Annexin V flow cytometry analysis of apoptosis, FN-adhered vs non-adhered; type: cell-based, human
K562/pcDNA3.1 cells = assay: Annexin V apoptosis, FN adhesion with integrin blocking antibodies; type: cell-based; details: 100 μM, 90 minutes
K562/VLA-4 cells = assay: as above; type: cell-based; details: 100 μM, 90 minutes
[7] = 1 uM, 1 hour exposure, Annexin V 24 hours later
[8] = α4 blocking antibody prior to FN adhesion
[9] = α5 blocking antibody prior to adhesion

Nc1ccn([C@@H]2O[C@H](CO)[C@@H](O)[C@@H]2O)c(=O)n1 [Ara-C]
% Control death (K562 cells [1]; 100 μM, cont. exp.): 54.9* % | FN: mean death (K562 cells [1]; 100 μM, cont. exp.): 6.2 ± 1.6% | Suspension: mean death (K562 cells [1]; 100 μM, cont. exp.): 11.3 ± 5.5%

NCCC(O)(P(=O)(O)O)P(=O)(O)O [Pamidronate, 3-Amino-1-hydroxypropane-1,1-diphosphonic acid]
effect on adhesion to fibronectin (FN) coated plates (8226/S cells): effective in preventing FN adhesion

CC[C@]1(O)C[C@H]2CN(CCc3c([nH]c4ccccc34)[C@@](C(=O)OC)(c3cc4c(cc3OC)N(C=O)[C@H]3[C@@](O)(C(=O)OC)[C@H](OC(C)=O)[C@]5(CC)C=CCN6CC[C@]43[C@@H]65)C2)C1 [VCR, vincristine]
% Control death (K562 cells [1]; 10 μM, cont. exp.): 70.2% | FN: mean death (K562 cells [1]; 10 μM, cont. exp.): 12.5 ± 2.3% | Suspension: mean death (K562 cells [1]; 10 μM, cont. exp.): 17.8 ± 6.4%

COC(=O)c1ccc(NCc2cc(O)ccc2O)cc1 [AG957]
effect on adhesion of K562 cells to FN (K562 cells [2]): 20-40% | pIC50 (K562 cells [3]; FN adhered, continuous exposure (96 hours), read-out: Fibronectin mean IC50): 4.89 | Fold resistance (FN adhered over suspension) (K562 cells [3]; continuous exposure (96 hours)): 3.6 fold | pIC50 (K562 cells [3]; continuous exposure (96 hours), read-out: Suspension mean IC50): 5.44 | BCR/ABL associated tyrosine phosphorylation [4]: completely abrogated

O=C1c2c(O)ccc(O)c2C(=O)c2c(NCCNCCO)ccc(NCCNCCO)c21 [Mitoxantrone, mitoxantrone]
Fold resistance (FN adhered over suspension) (K562 cells [3]; 90 min. exposure): 3.72 fold | Fold resistance (FN adhered over suspension) (K562 cells [3]; 90 min. exposure, listed as mitoxantrone): approximately 3.7 fold | pIC50 (K562 cells [3]; Homo sapiens, K562, 1.5 h, 90 min. exposure, read-out: Suspension mean IC50): 6.69 | pIC50 (K562 cells [3]; Homo sapiens, K562, 1.5 h, FN adhered, 90 min. exposure, read-out: Fibronectin mean IC50): 6.12 | pIC50 (K562 cells [3]; Homo sapiens, K562, FN adhered, continuous exposure (96 hours), read-out: Fibronectin mean IC50): 6.49 | pIC50 (K562 cells [3]; Homo sapiens, K562, continuous exposure (96 hours), read-out: Suspension mean IC50): 7.32 | Fold resistance (FN adhered over suspension) (K562 cells [3]; continuous exposure (96 hours)): 6.83 fold | Fold resistance (FN adhered over suspension) (K562 cells [3]; continuous exposure (96 hours), listed as mitoxantrone): 6.8 fold | % Control death (K562 cells [1]; 10 μM, cont. exp.): 69.4* % | FN: mean death (K562 cells [1]; 10 μM, cont. exp.): 29.7 ± 6.2% | Suspension: mean death (K562 cells [1]; 10 μM, cont. exp.): 42.8 ± 8.4% | % Control death (K562 cells [1]; 50 μM, 1 hr): 58.3* % | FN: mean death (K562 cells [1]; 50 μM, 1 hr): 27.0 ± 9.4% | Suspension: mean death (K562 cells [1]; 50 μM, 1 hr): 46.3 ± 8.4%

COc1cccc2c1C(=O)c1c(O)c3c(c(O)c1C2=O)C[C@@](O)(C(=O)CO)C[C@@H]3O[C@H]1C[C@H](N)[C@H](O)[C@H](C)O1 [doxorubicin]
Response lower in FN-adhered cells compared to non-adhered controls (8226/S myeloma cells [5]; FIG. 1, one hour drug exposure): 12.6 fold | pIC50 (8226/S myeloma cells [5]; 1 h, grown in suspension, one hour drug exposure, representative experiment FIG. 1, read-out: IC50, non-adhered cells): 7.07 | pIC50 (8226/S myeloma cells [5]; 1 hour drug exposure, n=3, read-out: mean IC50, cells grown on BSA): 6.28 | pIC50 (8226/S myeloma cells [5]; 24 hour pre-adhesion, 1 hour drug exposure, n=3, read-out: mean IC50, FN-adhered cells): 5.79 | pIC50 (8226/S myeloma cells [5]; FN-adhered 24 hours prior to one hour drug exposure, representative experiment FIG. 1, read-out: IC50, adhered cells): 6.31 | mean difference FN-adhered vs BSA (8226/S myeloma cells [5]): 6.9 | survival (mitogenic effect) (8226/S myeloma cells [5]; subtoxic concentrations, FN-adhered cells): > 100% | effect on cell surface integrin expression (8226/S; acute exposure, wide range of concentrations, 1-48 hours): no immediate effects | percentage of apoptotic cells, FN-adhered (8226/S myeloma cells [6]; [7]): 16.3% | percentage of apoptotic cells, non-adhered controls (8226/S myeloma cells [6]; [7]): 40.3%

O=C(O)CN(CCN(CC(=O)O)CC(=O)O)CC(=O)O [EDTA]
effect on adhesion to fibronectin (FN) coated plates (8226/S cells): does not significantly affect cellular adhesion

N[C@@H](Cc1ccc(N(CCCl)CCCl)cc1)C(=O)O [LPAM, L-phenylalanine nitrogen mustard]
pIC50 (8226/S myeloma cells [5]; 1 h, read-out: mean IC50, cells grown on BSA): 4.52 | pIC50 (8226/S myeloma cells [5]; read-out: mean IC50, FN-adhered cells): 4.32 | mean difference FN-adhered vs BSA (8226/S myeloma cells [5]): 1.7 | pIC50 (K562 cells [3]; Homo sapiens, K562, 1.5 h, read-out: Fibronectin mean IC50): 3.72 | pIC50 (K562 cells [3]; Homo sapiens, K562, 1.5 h, read-out: Suspension mean IC50): 4.53 | pIC50 (K562 cells [3]; Homo sapiens, K562, 96 h, read-out: Fibronectin mean IC50): 4.24 | pIC50 (K562 cells [3]; Homo sapiens, K562, 96 h, read-out: Suspension mean IC50): 4.59 | Fold resistance (FN adhered over suspension) (K562 cells [3]; continuous exposure (96 hours)): 2.25 fold | level of cytoprotection by FN adhesion (in comparison to drug treated suspension cells) (K562/pcDNA3.1 cells; adhered through α5 alone): 29.9±5.3% | level of cytoprotection by FN adhesion (K562/pcDNA3.1 cells; [8]): 29.6±2.3% | level of cytoprotection by FN adhesion (K562/pcDNA3.1 cells; [9]): 0±11.1% | level of cytoprotection by FN adhesion (in comparison to drug treated suspension cells) (K562/VLA-4 cells; adhering through α4 and α5): 30.0±1.5% | level of cytoprotection by FN adhesion (K562/VLA-4 cells; [8]): 28.4±5.0% | level of cytoprotection by FN adhesion (K562/VLA-4 cells; [9]): 20.6±1.9% | effect on cell surface integrin expression (8226/S): no immediate effects | percentage of apoptotic cells, FN-adhered (8226/S myeloma cells [6]; 50 uM, 24 hours): 16.53% | percentage of apoptotic cells, non-adhered (8226/S myeloma cells [6]; 50 uM, 24 hours): 21.5% | % Control death (K562 cells [1]; 100 μM, 1 hr): 29.3* % | FN: mean death (K562 cells [1]; 100 μM, 1 hr): 11.0 ± 8.3% | Suspension: mean death (K562 cells [1]; 100 μM, 1 hr): 37.5 ± 24.0% | % Control death (K562 cells [1]; 100 μM, cont. exp.): 58.5* % | FN: mean death (K562 cells [1]; 100 μM, cont. exp.): 23.3 ± 6.4% | Suspension: mean death (K562 cells [1]; 100 μM, cont. exp.): 39.8 ± 3.2%

O=P(O)(O)C(O)(Cn1ccnc1)P(=O)(O)O [Zoledronate]
effect on adhesion to fibronectin (FN) coated plates (8226/S cells): effective in preventing FN adhesion
